The supplement of paper PMC13207355

How the values were obtained:
Conditions in all cases: exposure time: 72 h
E57 [1] = patient-derived glioblastoma stem cells of mesenchymal subtype; assay: surviving fraction (nuclei count normalised to DMSO); higher = more cells surviving (less toxic)
E21 [2] = patient-derived glioblastoma stem cells of mesenchymal subtype; assay: as above
FT3469 [3] = normal neural stem cell line; assay: as above
E13 [4] = patient-derived glioblastoma stem cells of classical subtype; assay: as above
E28 [5] = patient-derived glioblastoma stem cells of classical subtype; assay: as above
E31 [6] = patient-derived glioblastoma stem cells of proneural subtype; assay: as above
E34 [7] = patient-derived glioblastoma stem cells of proneural subtype; assay: as above
E57 [8] = assay: phenotypic distance (Euclidean, principal components) from DMSO controls (arbitrary units); higher = stronger morphological change
E21 [9] = assay: as above
FT3469 [10] = assay: as above
E13 [11] = assay: as above
E28 [12] = assay: as above
E31 [13] = assay: as above
E34 [14] = assay: as above
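Wherever phenotypic distance (Euclidean, principal components) from DMSO controls is given: cell Painting imaging in 384-well plates, CellProfiler features reduced to at least 20 principal components, Euclidean distance versus same-plate DMSO vehicle wells (0.1% v/v), median over six images per well.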
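Wherever surviving fraction (nuclei count normalised to DMSO) is given: nuclei counted by high-content imaging of Hoechst-stained cells in laminin-coated 384-well plates, relative to 0.1% DMSO vehicle wells, with staurosporine as cell-death control.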

COc1ccc2[nH]c([S+]([O-])Cc3ncc(C)c(OC)c3C)nc2c1 (stereo not drawn) [Omeprazole]
Conditions	phenotypic distance	surviving fraction
E13 [4], 4.1 nM	–	1.05
E13 [4], 12.3 nM	–	0.938
E13 [4], 37 nM	–	0.905
E13 [4], 111.1 nM	–	1.03
E13 [4], 333.3 nM	–	0.869
E13 [4], 1000 nM	–	1
E13 [4], 3000 nM	–	0.867
E13 [11], 4.1 nM	1.1	–
E13 [11], 12.3 nM	0.755	–
E13 [11], 37 nM	3.51	–
E13 [11], 111.1 nM	0.567	–
E13 [11], 333.3 nM	0.654	–
E13 [11], 1000 nM	2.01	–
E13 [11], 3000 nM	2.52	–
E21 [2], 4.1 nM	–	0.918
E21 [2], 12.3 nM	–	0.928
E21 [2], 37 nM	–	1.02
E21 [2], 111.1 nM	–	0.96
E21 [2], 333.3 nM	–	0.928
E21 [2], 1000 nM	–	0.956
E21 [2], 3000 nM	–	0.943
E21 [9], 4.1 nM	0.405	–
E21 [9], 12.3 nM	0.66	–
E21 [9], 37 nM	0.543	–
E21 [9], 111.1 nM	0.648	–
E21 [9], 333.3 nM	0.808	–
E21 [9], 1000 nM	0.429	–
E21 [9], 3000 nM	0.519	–
E28 [5], 4.1 nM	–	0.929
E28 [5], 12.3 nM	–	1.07
E28 [5], 37 nM	–	1.08
E28 [5], 111.1 nM	–	1.01
E28 [5], 333.3 nM	–	0.973
E28 [5], 1000 nM	–	1.12
E28 [5], 3000 nM	–	1.07
E28 [12], 4.1 nM	0.44	–
E28 [12], 12.3 nM	0.413	–
E28 [12], 37 nM	0.667	–
E28 [12], 111.1 nM	0.895	–
E28 [12], 333.3 nM	0.743	–
E28 [12], 1000 nM	0.799	–
E28 [12], 3000 nM	0.723	–
E31 [6], 4.1 nM	–	0.952
E31 [6], 12.3 nM	–	1.04
E31 [6], 37 nM	–	1.03
E31 [6], 111.1 nM	–	0.985
E31 [6], 333.3 nM	–	1.06
E31 [6], 1000 nM	–	0.947
E31 [6], 3000 nM	–	0.777
E31 [13], 4.1 nM	0.572	–
E31 [13], 12.3 nM	0.759	–
E31 [13], 37 nM	0.563	–
E31 [13], 111.1 nM	0.747	–
E31 [13], 333.3 nM	0.837	–
E31 [13], 1000 nM	0.778	–
E31 [13], 3000 nM	0.726	–
E34 [7], 4.1 nM	–	1.02
E34 [7], 12.3 nM	–	1.19
E34 [7], 37 nM	–	1.12
E34 [7], 111.1 nM	–	0.869
E34 [7], 333.3 nM	–	0.988
E34 [7], 1000 nM	–	1.04
E34 [7], 3000 nM	–	0.988
E34 [14], 4.1 nM	1.17	–
E34 [14], 12.3 nM	0.774	–
E34 [14], 37 nM	1.1	–
E34 [14], 111.1 nM	0.579	–
E34 [14], 333.3 nM	1.09	–
E34 [14], 1000 nM	0.511	–
E34 [14], 3000 nM	0.693	–
E57 [1], 4.1 nM	–	1.08
E57 [1], 12.3 nM	–	0.963
E57 [1], 37 nM	–	0.934
E57 [1], 111.1 nM	–	0.99
E57 [1], 333.3 nM	–	0.91
E57 [1], 1000 nM	–	1.01
E57 [1], 3000 nM	–	0.926
E57 [8], 4.1 nM	0.551	–
E57 [8], 12.3 nM	0.53	–
E57 [8], 37 nM	0.343	–
E57 [8], 111.1 nM	0.729	–
E57 [8], 333.3 nM	0.596	–
E57 [8], 1000 nM	0.755	–
E57 [8], 3000 nM	1.11	–
FT3469 [3], 4.1 nM	–	0.946
FT3469 [3], 12.3 nM	–	1.04
FT3469 [3], 37 nM	–	1
FT3469 [3], 111.1 nM	–	0.823
FT3469 [3], 333.3 nM	–	1.04
FT3469 [3], 1000 nM	–	0.979
FT3469 [3], 3000 nM	–	0.976
FT3469 [10], 4.1 nM	0.923	–
FT3469 [10], 12.3 nM	0.698	–
FT3469 [10], 37 nM	0.685	–
FT3469 [10], 111.1 nM	1.14	–
FT3469 [10], 333.3 nM	0.549	–
FT3469 [10], 1000 nM	0.593	–
FT3469 [10], 3000 nM	0.772	–
